Assays:
[1] = log P by HPLC on reversed-phase column (EEC Directive 79/831 Annex V.A8); assay type: physicochemical; settings: reversed-phase C18 HPLC column, pH 2.3, 43° C.
Procedure: The log P values given in the preparation examples and tables above are determined in accordance with EEC Directive 79/831 Annex V.A8 by HPLC (High Performance Liquid Chromatography) on a reversed-phase column (C 18). Temperature: 43° C.
In the acidic range, determination is carried out at pH 2.3 using the mobile phases 0.1% aqueous phosphoric acid and acetonitrile; linear gradient from 10% acetonitrile to 90% acetonitrile (in the tables marked with a)).
Calibration is carried out using unbranched alkan-2-ones (of 3 to 16 carbon atoms) with known lop P values (determination of the log P values by the retention times using linear interpolation between two successive alkanones).

Tetranychus urticae = test: Tetranychus test (OP-resistant/spray application); assay type: in vivo; settings: 100 g/ha, spray on bean leaf slices
Procedure: Tetranychus test (OP-Resistant/Spray Application)
(§1) To produce a suitable preparation of active compound, 1 part by weight of active compound is mixed with the stated amounts of solvent and emulsifier, and the concentrate is diluted with emulsifier-containing water to the desired concentration.
Bean leave slices (Phaseolus vulgaris), which are infested with all stages of the two-spotted spider mite (Tetranychus urticae), are treated by being sprayed with the preparation of the active compound of the desired concentration.
After the specified period of time, the mortality in % is determined. 100% means that all the […] have been killed; 0% means that none of the […] have been killed.

Plutella xylostella = test: Plutella test; assay type: in vivo; settings: 20 ppm, cabbage leaves dipped
Procedure: as §1
Cabbage leaves (Brassica oleracea) are treated by being dipped into the preparation of active compound of the desired concentration and are populated with caterpillars of the diamondback moth (Plutella xylostella) while the leaves are still moist.
After the desired period of time, the kill in % is determined. 100% means that all caterpillars have been killed; 0% means that none of the caterpillars have been killed.

Row | Structure (SMILES) | chromatographic logP [1] | Kill rate in % after 5 d (Tetranychus urticae) | Kill rate in % after 7 d (Plutella xylostella)
1 | Cc1cc(C(F)(C(F)F)C(F)(F)F)ccc1N (stereo not drawn) [4-(1-Difluoromethyl-1,2,2,2-tetrafluoro-ethyl)-2-methyl-phenylamine] | 2.74 | – | –
2 | CSC[C@H](C)NC(=O)c1c(Cl)cccc1C(=O)Nc1ccc(C(C(F)F)C(F)(F)F)cc1Cl (stereo partly drawn) [Compound 42] | – | 80% | –
3 | Cc1cc(C(F)(C(F)F)C(F)(F)F)ccc1NC(=O)c1cccc(Cl)c1C(=O)N[C@@H](C)CS(C)(=O)=O (stereo partly drawn) [Compound 44] | – | 80% | 100%

The next lines start with results.

Row | chromatographic logP [1] | Structure (SMILES) | Kill rate in % after 5 d (Tetranychus urticae) | Kill rate in % after 7 d (Plutella xylostella)
4 | 2.02 | Cc1cc(C(C(F)F)C(F)(F)F)ccc1N (stereo not drawn) [4-(1-Difluoromethyl-2,2,2-trifluoro-ethyl)-2-methyl-phenylamine] | – | –
5 | 3.87 | CSC[C@H](C)N=C1OC(=O)c2cccc(I)c21 [4-Iodo-3-[(S)-1-methyl-2-methylsulfanyl-ethylimino]-3H-isobenzofuran-1-one] | – | –
